Reference: the supplement of paper PMC11061612

Columns and labels:
AZD4320 = compound: CN(CC[C@H](CSC1=CC=CC=C1)NC2=C(C=C(C=C2)S(=O)(=O)NC(=O)C3=CC=C(C=C3)N4CCC(CC4)[C@H](C5=CC=CC=C5C6=CC=C(C=C6)Cl)O)S(=O)(=O)C(F)(F)F)CCO [AZD4320]; conditions: max 1 µM
Method in brief: (§1)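 Cancer cell lines were seeded into 1536-well plates in 7.5 μl medium (DMEM/F12 or RPMI, 10% FBS), held 24 hours at 37°C and 5% CO2, and dosed for 72 hours with final DMSO typically 0.2%. Luminescence from CellTiter-Glo 2.0, scaled between blank-well and DMSO-well means, served as viability. The single-agent IC50 was obtained from dose-response fits with a non-linear mixed effects model, each fit being a two-parameter logistic curve.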

Doxorubicin = compound: COc1cccc2c1C(=O)c1c(O)c3c(c(O)c1C2=O)C[C@@](O)(C(=O)CO)C[C@@H]3O[C@H]1C[C@H](N)[C@H](O)[C@H](C)O1 [Doxorubicin]; conditions: max 1 µM
Method in brief: as §1

Gefitinib = compound: COc1cc2ncnc(Nc3ccc(F)c(Cl)c3)c2cc1OCCCN1CCOCC1 [Gefitinib]; conditions: max 10 µM
Method in brief: as §1

Venetoclax = compound: CC1(C)CCC(CN2CCN(c3ccc(C(=O)NS(=O)(=O)c4ccc(NCC5CCOCC5)c([N+](=O)[O-])c4)c(Oc4cnc5[nH]ccc5c4)c3)CC2)=C(c2ccc(Cl)cc2)C1 [Venetoclax]; conditions: max 1 µM
Method in brief: as §1

Dasatinib = compound: CC1=C(C(=CC=C1)Cl)NC(=O)C2=CN=C(S2)NC3=CC(=NC(=N3)C)N4CCN(CC4)CCO [Dasatinib]; conditions: max 2 µM
Method in brief: as §1

Palbociclib = compound: CC(=O)c1c(C)c2cnc(Nc3ccc(N4CCNCC4)cn3)nc2n(C2CCCC2)c1=O [Palbociclib]; conditions: max 10 µM
Method in brief: as §1

Olaparib = compound: O=C(c1cc(Cc2n[nH]c(=O)c3ccccc23)ccc1F)N1CCN(C(=O)C2CC2)CC1 [Olaparib]; conditions: max 10 µM
Method in brief: as §1

Taselisib = compound: Cc1nc(-c2cn3c(n2)-c2ccc(-c4cnn(C(C)(C)C(N)=O)c4)cc2OCC3)n(C(C)C)n1 [Taselisib]; conditions: max 10 µM
Method in brief: as §1

AZD0156 = compound: CN(C)CCCOc1ccc(-c2ccc3ncc4c(c3c2)n(C2CCOCC2)c(=O)n4C)cn1 [AZD0156]
Method in brief: as §1

AZD5991 = compound: Cc1c2c(nn1C)CSCc1cc(n(C)n1)CSc1cc(c3ccccc3c1)OCCCc1c(C(=O)O)n(C)c3c-2c(Cl)ccc13 [AZD5991]; conditions: max 1 µM
Method in brief: as §1

Lapatinib = compound: CS(=O)(=O)CCNCc1ccc(-c2ccc3ncnc(Nc4ccc(OCc5cccc(F)c5)c(Cl)c4)c3c2)o1 [Lapatinib]; conditions: max 10 µM
Method in brief: as §1

AZD6738 = compound: C[C@@H]1COCCN1C2=NC(=NC(=C2)C3(CC3)[S@](=N)(=O)C)C4=C5C=CNC5=NC=C4 [AZD6738]; conditions: max 10 µM
Method in brief: as §1

AZD5153 = compound: COc1nnc2ccc(N3CCC(c4ccc(OCCN5CCN(C)C(=O)[C@H]5C)cc4)CC3)nn12 [AZD5153]; conditions: max 1 µM
Method in brief: as §1

Trametinib = compound: CC(=O)Nc1cccc(-n2c(=O)n(C3CC3)c(=O)c3c(Nc4ccc(I)cc4F)n(C)c(=O)c(C)c32)c1 [Trametinib]; conditions: max 1 µM
Method in brief: as §1

Crizotinib = compound: C[C@@H](Oc1cc(-c2cnn(C3CCNCC3)c2)cnc1N)c1c(Cl)ccc(F)c1Cl [Crizotinib]; conditions: max 10 µM
Method in brief: as §1

Savolitinib = compound: C[C@@H](c1ccc2nccn2c1)n1nnc2ncc(-c3cnn(C)c3)nc21 [Savolitinib]; conditions: max 1 µM
Method in brief: as §1

AZD7648 = compound: Cc1cc2ncnn2cc1Nc1ncc2c(n1)n(C1CCOCC1)c(=O)n2C [AZD7648]; conditions: max 10 µM
Method in brief: as §1

AZD8186 = compound: C[C@@H](Nc1cc(F)cc(F)c1)c1cc(C(=O)N(C)C)cc2c(=O)cc(N3CCOCC3)oc12 [AZD8186]
Method in brief: as §1

Prexasertib = compound: COc1cccc(OCCCN)c1-c1cc(Nc2cnc(C#N)cn2)n[nH]1 [Prexasertib]; conditions: max 1 µM
Method in brief: as §1

Alisertib = compound: COc1cc(Nc2ncc3c(n2)-c2ccc(Cl)cc2C(c2c(F)cccc2OC)=NC3)ccc1C(=O)O [Alisertib]; conditions: max 10 µM
Method in brief: as §1

AZD1390 = compound: CC(C)n1c(=O)n(C)c2cnc3cc(F)c(-c4ccc(OCCCN5CCCCC5)nc4)cc3c21 [AZD1390]; conditions: max 0.3 µM
Method in brief: as §1

AZD1775 = compound: C=CCn1c(=O)c2cnc(Nc3ccc(N4CCN(C)CC4)cc3)nc2n1-c1cccc(C(C)(C)O)n1 [AZD1775]
Method in brief: as §1

SN-38 = compound: CCc1c2c(nc3ccc(O)cc13)-c1cc3c(c(=O)n1C2)COC(=O)[C@]3(O)CC [SN-38]; conditions: max 0.3 µM
Method in brief: as §1

AZD2811 = compound: CCN(CCO)CCCOc1ccc2c(Nc3cc(CC(=O)Nc4cccc(F)c4)[nH]n3)ncnc2c1 [AZD2811]; conditions: max 1 µM
Method in brief: as §1

Capivasertib = compound: C1CN(CCC1(C(=O)N[C@@H](CCO)C2=CC=C(C=C2)Cl)N)C3=NC=NC4=C3C=CN4 [Capivasertib]
Method in brief: as §1

Selumetinib = compound: Cn1cnc2c(F)c(Nc3ccc(Br)cc3Cl)c(C(=O)NOCCO)cc21 [Selumetinib]
Method in brief: as §1

SG3199 = compound: CC1=CN2[C@@H](C1)C=NC3=CC(=C(C=C3C2=O)OC)OCCCCCOC4=C(C=C5C(=C4)N=C[C@@H]6CC(=CN6C5=O)C)OC [SG3199]; conditions: max 0.001 µM
Method in brief: as §1

AZD5363 = compound: C1CN(CCC1(C(=O)N[C@@H](CCO)C2=CC=C(C=C2)Cl)N)C3=NC=NC4=C3C=CN4 [AZD5363]; conditions: max 10 µM
Method in brief: as §1

Paclitaxel = compound: CC(=O)O[C@H]1C(=O)[C@@]2(C)[C@H]([C@H](OC(=O)c3ccccc3)[C@]3(O)C[C@H](OC(=O)[C@H](O)[C@@H](NC(=O)c4ccccc4)c4ccccc4)C(C)=C1C3(C)C)[C@]1(OC(C)=O)CO[C@@H]1C[C@@H]2O [Paclitaxel]; conditions: max 3 µM
Method in brief: as §1

Carboplatin = compound: C1CC(C1)(C(=O)[O-])C(=O)[O-].N.N.[Pt+2] [Carboplatin]; conditions: max 10 µM
Method in brief: as §1

MK-2206 = compound: NC1(c2ccc(-c3nc4ccn5c(=O)[nH]nc5c4cc3-c3ccccc3)cc2)CCC1 [MK-2206]; conditions: max 10 µM
Method in brief: as §1

Etoposide = compound: COc1cc([C@@H]2c3cc4c(cc3[C@@H](O[C@@H]3O[C@@H]5CO[C@@H](C)O[C@H]5[C@H](O)[C@H]3O)[C@H]3COC(=O)[C@H]23)OCO4)cc(OC)c1O [Etoposide]; conditions: max 10 µM
Method in brief: as §1

[1] = compound: O=C(Nc1ccc2[nH]nc(-c3ccncc3)c2c1)[C@@H]1CCN(CC(=O)N2CCN(c3ccc(-c4ncccn4)cc3)CC2)C1; conditions: max 5 µM
Method in brief: as §1

5-Fluorouracil = compound: O=c1[nH]cc(F)c(=O)[nH]1 [5-Fluorouracil]; conditions: max 20 µM
Method in brief: as §1

SRA737 = compound: N#Cc1cnc(Nc2cc(NC[C@H]3CNCCO3)c(C(F)(F)F)cn2)cn1 [SRA737]; conditions: max 10 µM
Method in brief: as §1

Gemcitabine = compound: Nc1ccn([C@@H]2O[C@H](CO)[C@@H](O)C2(F)F)c(=O)n1 [Gemcitabine]; conditions: max 0.3 µM
Method in brief: as §1

Cell Line	IC50, cell viability 72 h (AZD4320) [nM]	IC50, cell viability 72 h (Doxorubicin) [nM]	IC50, cell viability 72 h (Gefitinib) [nM]	IC50, cell viability 72 h (Venetoclax) [nM]	IC50, cell viability 72 h (Dasatinib) [nM]	IC50, cell viability 72 h (Palbociclib) [nM]	IC50, cell viability 72 h (Olaparib) [nM]	IC50, cell viability 72 h (Taselisib) [nM]	IC50, cell viability 72 h (AZD0156; max 3 µM) [nM]	IC50, cell viability 72 h (AZD5991) [nM]	IC50, cell viability 72 h (Lapatinib) [nM]	IC50, cell viability 72 h (AZD6738) [nM]	IC50, cell viability 72 h (AZD5153) [nM]	IC50, cell viability 72 h (Trametinib) [nM]	IC50, cell viability 72 h (AZD7648) [nM]	IC50, cell viability 72 h (Prexasertib) [nM]	IC50, cell viability 72 h (Alisertib) [nM]	IC50, cell viability 72 h (SN-38) [nM]	IC50, cell viability 72 h (AZD2811) [nM]	IC50, cell viability 72 h (SG3199) [nM]	other results
KG-1 (Acute Myeloid Leukemia)	96.9	> 1000	> 10000	550	> 2000	> 10000	> 10000	> 10000	> 3000	83.7	> 10000	5630	216	> 1000	> 10000	45.8	774	13.2	> 1000	> 1	IC50, cell viability 72 h (Crizotinib): > 10000 nM; IC50, cell viability 72 h (Savolitinib): > 1000 nM; IC50, cell viability 72 h (AZD8186; max 3 µM): > 3000 nM; IC50, cell viability 72 h (AZD1390): > 300 nM; IC50, cell viability 72 h (AZD1775; max 3 µM): 662 nM; IC50, cell viability 72 h (Capivasertib; max 10 µM): > 10000 nM; IC50, cell viability 72 h (Selumetinib; max 10 µM): > 10000 nM
P31-FUJ (Acute Myeloid Leukemia)	243	255	> 10000	758	> 2000	> 10000	> 10000	3310	> 3000	157	> 10000	1290	148	616	> 10000	2.72	1060	11.7	24	> 1	IC50, cell viability 72 h (AZD5363): 2410 nM; IC50, cell viability 72 h (Paclitaxel): 5.09 nM; IC50, cell viability 72 h (Carboplatin): > 10000 nM; IC50, cell viability 72 h (MK-2206): 1680 nM; IC50, cell viability 72 h (Etoposide): 2760 nM; IC50, cell viability 72 h [1]: 1570 nM; IC50, cell viability 72 h (Crizotinib): 1740 nM; IC50, cell viability 72 h (Savolitinib): > 1000 nM; IC50, cell viability 72 h (AZD8186; max 10 µM): > 10000 nM; IC50, cell viability 72 h (5-Fluorouracil): > 20000 nM; IC50, cell viability 72 h (AZD1390): > 300 nM; IC50, cell viability 72 h (AZD1775; max 3 µM): 83.1 nM; IC50, cell viability 72 h (SRA737): 534 nM; IC50, cell viability 72 h (Gemcitabine): 179 nM; IC50, cell viability 72 h (Selumetinib; max 10 µM): 8970 nM
EKVX (Non-Small Cell Lung Carcinoma)	> 1000	> 1000	–	> 1000	–	–	> 10000	> 10000	–	> 1000	–	> 10000	–	747	> 10000	> 1000	> 10000	> 300	> 1000	> 1	IC50, cell viability 72 h (AZD0156; max 1 µM): > 1000 nM; IC50, cell viability 72 h (AZD8186; max 3 µM): > 3000 nM; IC50, cell viability 72 h (AZD1775; max 1 µM): > 1000 nM; IC50, cell viability 72 h (Capivasertib; max 3 µM): > 3000 nM; IC50, cell viability 72 h (Selumetinib; max 3 µM): > 3000 nM
NOMO-1 (Acute Myeloid Leukemia)	> 1000	542	> 10000	627	> 2000	6660	> 10000	1510	> 3000	210	> 10000	1660	50.4	3.07	> 10000	5.79	4160	7.23	905	> 1	IC50, cell viability 72 h (AZD5363): > 10000 nM; IC50, cell viability 72 h (Paclitaxel): 7.09 nM; IC50, cell viability 72 h (Carboplatin): > 10000 nM; IC50, cell viability 72 h (MK-2206): > 10000 nM; IC50, cell viability 72 h (Etoposide): 2120 nM; IC50, cell viability 72 h [1]: 591 nM; IC50, cell viability 72 h (Crizotinib): 8600 nM; IC50, cell viability 72 h (Savolitinib): > 1000 nM; IC50, cell viability 72 h (AZD8186; max 10 µM): 9000 nM; IC50, cell viability 72 h (5-Fluorouracil): 2210 nM; IC50, cell viability 72 h (AZD1390): > 300 nM; IC50, cell viability 72 h (AZD1775; max 3 µM): 215 nM; IC50, cell viability 72 h (SRA737): 1160 nM; IC50, cell viability 72 h (Gemcitabine): 10.1 nM; IC50, cell viability 72 h (Selumetinib; max 10 µM): 138 nM
